From article PMC4603724 (ACS Medicinal Chemistry Letters, 2015) come the findings set out here.

This experiment addresses protein disulfide isomerase (PDI) (Homo sapiens, UniProt P07237). Kind of experiment: 1H-15N HSQC NMR chemical shift perturbation. Type of experiment: binding.

Structures are written as SMILES.

Chain of protein disulfide isomerase (PDI) (P07237 18-137): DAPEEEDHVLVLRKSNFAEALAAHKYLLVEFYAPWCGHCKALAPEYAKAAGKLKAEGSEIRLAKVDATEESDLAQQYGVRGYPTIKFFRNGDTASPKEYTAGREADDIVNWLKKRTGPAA

What is called Kd is a measure of binding affinity in units of concentration. As for `O=C1C=C2C=C[C@@H]3C[C@@]2(O1)[C@H]1CCCCN31` [IBS141, securinine], the Kd amounted to 758 ± 129 µM.
